Here are results for two compounds from patent EP0928291B1, “3-MERCAPTOACETYLAMINO-1,5-SUBSTITUTED-2-OXO-AZEPAN DERIVATIVES USEFUL AS INHIBITORS OF MATRIX METALLOPROTEINASE” (Aventis Pharmaceuticals Inc., priority 1996, dated 1998).

Common to all, as to type: biochemical
One test addresses T1, MMP-3 (Homo sapiens, UniProt P08254).
T1 construct: The active MMP-3 was obtained by treatment of proMMP-3 with trypsin; endogenous in cells; host or cells: human rheumatoid synovial fibroblasts stimulated with macrophage-conditioned medium (secreted proenzyme purified from the culture medium)
The experiment in a line: Determination of Inhibition Constant (Ki) for MMP-3, fluorogenic substrate assay. Conditions: activated MMP-3, substrate Mca-Pro-Leu-Gly-Leu-Dpa-Ala-Arg-NH2, 37°C, pH 7.6, [S] = 1 µM, [MMP-3] = 1 nM. The protocol: ProMMP-3 (EC 3.4.24.17; Stromelysin-1) was purified from culture medium of human rheumatoid synovial fibroblasts stimulated with macrophage-conditioned medium according to Okada, Y. et al., J. Biol. Chem. 261, 14245-14255 (1986). The active MMP-3 was obtained by treatment of proMMP-3 with trypsin (5 µg/mL) at 37°C for 30 min, followed by addition of soybean trypsin inhibitor (50 µg/mL). Aliquots of the activated MMP-3 were stored at -20°C.
The activated MMP-3 is assayed using a fluorogenic substrate, Mca-Pro-Leu-Gly-Leu-Dpa-Ala-Arg-NH2, Knight, C.G. et al., FEBS Lett. 296, 263-266 (1992), at 37°C in an assay buffer containing 50 mM Tris, pH 7.6, 0.2 M NaCI, 50 mM CaCl2, and 0.02% Brij-35. The increase in fluorescence due to cleavage of Gly-Leu peptide bond by MMP-3 was monitored with Perkin-Elmer LS50B Fluorimeter (λex 328 nm, λem 393 nm, excitation slit 2.5, emission slit 10). Substrate and inhibitor stock solutions were made in DMF and 0.1% HCl-DMF, respectively. […] Under these conditions, the measured Ki, app is close to true Ki.
(§1) The Ki for a competitive inhibitor is calculated using: v0/vi = (1 + [I]/Ki, app) and Ki = Ki, app/(1 + [S]/Km), where v0 is the initial rate in the absence of inhibitor, vi is the initial rate in the presence of inhibitor at the concentration of [I], [S] is the substrate concentration, and Km is the Michaelis constant. […]

The target in test [1] is T2, MMP-12 (macrophage metalloelastase) (Homo sapiens, UniProt P39900).
T2 construct: made in house
As to the kind of experiment: Determination of the inhibition constant (Ki) for MMP-12, fluorogenic substrate assay (cuvette or microtiter plate). The conditions noted are these: substrate Mca-Pro-Leu-Gly-Leu-Dpa-Ala-Arg-NH2, 25C, pH 7.6, [MMP-12] = 2 nM, cuvette or microtiter plate method. The protocol: MMP-12 (EC 3.4.24.65) was cloned, expressed and purified according to Shapiro, S.D. et al., J Biol. Chem. 268, 23824-23829 (1993). […] Aliquots of MMP-12 were stored at -70C.
The potency of inhibitors of MMP-12 was measured using either quartz cuvettes or microtiter plates. The activity of MMP-12 was measured using a fluorogenic substrate, Mca-Pro-Leu-Gly-Leu-Dpa-Ala-Arg-NH2, Knight, C.G. et al., FEBS Lett. 296,263-266 (1992), at 25C in an assay buffer containing 50 mM Tris, pH 7.6, 0.2 M NaCl, 50 mM CaCl2, and 0.02% Brij-35. The increase in fluorescence due to cleavage of Gly-Leu peptide bond by MMP-12 was monitored with a Perkin-Elmer LS50B Fluorimeter (λex 328 nm, λem 393 nm, excitation slit 2.5, emission slit 10) for the cuvette assay and with a Molecular Devices Fmax fluorescence plate reader (λex 320 nm, λem 405 nm) for the microtiter plate assay. Substrate and inhibitor stock solutions were made in N,N,dimethylformamide (DMF) and 0.1% HCI-DMF, respectively. […]
Ki values were determined using the microtiter plate method in a manner similar to that described for the cuvette method with some modifications. […] Cleavage of substrate was recorded every 30 seconds for 30 minutes and progress curves were generated. […]

For a further test, the target named is T3, MMP-2 (Homo sapiens, UniProt P08253).
T3 construct: made in house; host or cells: Pichia pastoris (strains KM71 / SMD1168, clone 24S)
T3 sequence (P08253 110-660): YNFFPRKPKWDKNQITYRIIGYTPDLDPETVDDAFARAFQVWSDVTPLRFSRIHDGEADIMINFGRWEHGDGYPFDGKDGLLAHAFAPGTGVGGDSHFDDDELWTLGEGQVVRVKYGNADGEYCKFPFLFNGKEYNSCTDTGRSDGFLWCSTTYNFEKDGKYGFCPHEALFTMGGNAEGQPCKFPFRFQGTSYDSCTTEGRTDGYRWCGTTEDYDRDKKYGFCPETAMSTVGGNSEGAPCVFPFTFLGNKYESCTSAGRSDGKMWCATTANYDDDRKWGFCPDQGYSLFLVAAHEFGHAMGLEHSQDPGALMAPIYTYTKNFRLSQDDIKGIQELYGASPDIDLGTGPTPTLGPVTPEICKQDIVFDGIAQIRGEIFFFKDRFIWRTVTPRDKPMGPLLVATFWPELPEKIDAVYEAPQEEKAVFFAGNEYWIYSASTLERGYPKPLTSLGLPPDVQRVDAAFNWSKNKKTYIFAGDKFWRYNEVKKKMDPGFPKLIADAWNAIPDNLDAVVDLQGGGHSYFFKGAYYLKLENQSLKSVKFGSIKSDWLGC
The experiment in a line: Determination of Inhibition Constant (Ki) for MMP-2, fluorogenic substrate assay. The conditions noted are these: recombinant MMP-2, substrate Mca-Pro-Leu-Gly-Leu-Dpa-Ala-Arg-NH2, 37°C, pH 7.6, [S] = 1 µM, [MMP-2] = 0.4 nM.
Text: Recombinant MMP-2 was purified from the fermentation broth of yeast Pichia pastoris that carries the integrated MMP-2 gene into its chromosome. In brief, the full-length cDNA for MMP-2 was obtained by reverse transcription of RNA from human melanoma A375M cell line by the reverse transcriptase polymerase chain reaction (RT-PCR) using sequence specific oligonucleotides. The nucleotide sequence was confirmed by Taq cycle sequencing. The cDNA was ligated into the Pichia pastoris expression vector pHIL-D2 in such a way that the expression of pro-MMP2 is under the control of the methano inducible alcohol oxidase promoter. The expression construct was digested with either SalI or NsiI and used to transform the Pichia pastoris strains KM71 and SMD1168. […]
The active MMP-2 was obtained by activation of proMMP-2 at 37°C for 1 h with 4-aminophenylmercuric acetate which was then removed by a Sephadex G-50 spin column. […] The increase in fluorescence is monitored (λex 328 nm, λem 393 nm). […] Under these conditions, the measured Ki, app is close to true Ki.
as §1

Broadly, the Ki is the dissociation constant of the complex between target and ligand, obtained from inhibition or displacement.

T2 sequence (P39900 106-263 limits assumed): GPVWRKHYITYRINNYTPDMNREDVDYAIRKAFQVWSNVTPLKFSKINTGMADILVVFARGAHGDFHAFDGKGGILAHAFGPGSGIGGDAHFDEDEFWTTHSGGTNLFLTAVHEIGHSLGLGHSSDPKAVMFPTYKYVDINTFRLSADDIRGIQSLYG
T1 sequence (P08254 100-477): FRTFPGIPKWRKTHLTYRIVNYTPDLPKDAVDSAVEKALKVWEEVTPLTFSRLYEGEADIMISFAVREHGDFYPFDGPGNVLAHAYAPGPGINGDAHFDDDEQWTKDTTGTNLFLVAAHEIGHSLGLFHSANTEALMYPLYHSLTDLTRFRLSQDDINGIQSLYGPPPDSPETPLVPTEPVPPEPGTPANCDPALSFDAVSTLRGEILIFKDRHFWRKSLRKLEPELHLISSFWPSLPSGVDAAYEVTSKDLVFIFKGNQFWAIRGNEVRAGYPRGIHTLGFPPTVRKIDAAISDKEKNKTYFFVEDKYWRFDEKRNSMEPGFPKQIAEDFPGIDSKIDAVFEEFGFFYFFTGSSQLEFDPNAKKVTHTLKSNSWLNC

With `CNC(=O)C(Cc1ccccc1)N1CCC(c2ccccc2)CC(NC(=O)C(S)CCCCN2C(=O)c3ccccc3C2=O)C1=O` (stereo not drawn) [Compound III-1, 2H-Isoindole-2-hexanamide, N-[hexahydro-1-[2-(methylamino)-2-oxo-1-(phenylmethyl)ethyl]-2-oxo-5-phenyl-1H-azepin-3-yl]-1,3-dihydro-α-mercapto-1,3-dioxo-, [3S-[1(R*), 3α, 5β]]-], the figures for the Ki (on MMP-3; in test [1]) were 73 nM and 53 nM, respectively.

Take `CNC(=O)C(Cc1ccccc1)N1CCC(c2ccccc2)CC(NC(=O)C(S)CCCCN2C(=O)c3ccccc3C2=O)C1=O` (stereo not drawn) [Compound II-1, 2H-Isoindole-2-hexanamide, N-[hexahydro-1-[2-(methylamino)-2-oxo-1-(phenylmethyl)ethyl]-2-oxo-5-phenyl-1H-azepin-3-yl]-1,3-dihydro-α-mercapto-1,3-dioxo-, [3S-(1(R*), 3α, 5α]]-]: the Ki at MMP-3 worked out at 39 nM; in test [1], 18 nM; at MMP-2, 1.2 nM.
